Data reported in ChEMBL document CHEMBL2346657, “Synthesis of novel 2-amino-4-(5'-substituted 2'-phenyl-1H-indol-3'-yl)-6-aryl-4H-pyran-3-carbonitrile derivatives as antimicrobial and antioxidant agents” (2013).
Active and inactive are the calls of the source. No rule for the calls is given here.

Tested on: Staphylococcus aureus
Assay: Antimicrobial activity against Staphylococcus aureus ATCC 29513 at 1000 ug/ml after 24 hrs by cup plate method
Type: functional
Details: ATCC 29513, 24 h, read-out: IZ

| SMILES | zone of inhibition at 1000 µg/mL |
| --- | --- |
| Nc1nc(=S)[nH]c2c1C(c1c(-c3ccccc3)[nH]c3ccccc13)C=C(c1ccccc1)O2 (stereo not given) | 0 mm |
| O=c1[nH]cnc2c1C(c1c(-c3ccccc3)[nH]c3ccccc13)C=C(c1ccccc1)O2 (stereo not given) | 10 mm |

Tested on: Klebsiella pneumoniae
Assay: Antimicrobial activity against Klebsiella pneumoniae NCTC 13368 at 500 ug/ml after 24 hrs by cup plate method
Type: functional
Details: NCTC 13368, 24 h, read-out: IZ

| SMILES | zone of inhibition at 500 µg/mL |
| --- | --- |
| Nc1nc(=S)[nH]c2c1C(c1c(-c3ccccc3)[nH]c3ccccc13)C=C(c1ccccc1)O2 (stereo not given) | 9 mm |
| O=c1[nH]cnc2c1C(c1c(-c3ccccc3)[nH]c3ccccc13)C=C(c1ccccc1)O2 (stereo not given) | 11 mm |

Tested on: Aspergillus terreus
Assay: Antimicrobial activity against Aspergillus terreus MTCC 1782 at 500 ug/ml after 72 hrs by cup plate method
Type: functional
Details: MTCC 1782, 72 h, read-out: IZ

| SMILES | zone of inhibition at 500 µg/mL |
| --- | --- |
| Nc1nc(=S)[nH]c2c1C(c1c(-c3ccccc3)[nH]c3ccccc13)C=C(c1ccccc1)O2 (stereo not given) | 5 mm |
| O=c1[nH]cnc2c1C(c1c(-c3ccccc3)[nH]c3ccccc13)C=C(c1ccccc1)O2 (stereo not given) | 9 mm |

Tested on: Aspergillus flavus
Assay: Antimicrobial activity against Aspergillus flavus MTCC 1973 at 500 ug/ml after 72 hrs by cup plate method
Type: functional
Details: MTCC 1973, 72 h, read-out: IZ

| SMILES | zone of inhibition at 500 µg/mL |
| --- | --- |
| Nc1nc(=S)[nH]c2c1C(c1c(-c3ccccc3)[nH]c3ccccc13)C=C(c1ccccc1)O2 (stereo not given) | 9 mm |
| O=c1[nH]cnc2c1C(c1c(-c3ccccc3)[nH]c3ccccc13)C=C(c1ccccc1)O2 (stereo not given) | 9 mm |

Tested on: Pseudomonas aeruginosa
Assay: Antimicrobial activity against Pseudomonas aeruginosa MTCC 1688 at 750 ug/ml after 24 hrs by cup plate method
Type: functional
Details: MTCC 1688, 24 h, read-out: IZ

| SMILES | zone of inhibition at 750 µg/mL |
| --- | --- |
| Nc1nc(=S)[nH]c2c1C(c1c(-c3ccccc3)[nH]c3ccccc13)C=C(c1ccccc1)O2 (stereo not given) | 2 mm |
| O=c1[nH]cnc2c1C(c1c(-c3ccccc3)[nH]c3ccccc13)C=C(c1ccccc1)O2 (stereo not given) | 4 mm |

Tested on: Aspergillus terreus
Assay: Antimicrobial activity against Aspergillus terreus MTCC 1782 at 750 ug/ml after 72 hrs by cup plate method
Type: functional
Details: MTCC 1782, 72 h, read-out: IZ

| SMILES | zone of inhibition at 750 µg/mL |
| --- | --- |
| Nc1nc(=S)[nH]c2c1C(c1c(-c3ccccc3)[nH]c3ccccc13)C=C(c1ccccc1)O2 (stereo not given) | 5 mm |
| O=c1[nH]cnc2c1C(c1c(-c3ccccc3)[nH]c3ccccc13)C=C(c1ccccc1)O2 (stereo not given) | 8 mm |

Tested on: Aspergillus niger
Assay: Antimicrobial activity against Aspergillus niger MTCC 281 at 1000 ug/ml after 72 hrs by cup plate method
Type: functional
Details: MTCC 281, 72 h, read-out: IZ

| SMILES | zone of inhibition at 1000 µg/mL |
| --- | --- |
| Nc1nc(=S)[nH]c2c1C(c1c(-c3ccccc3)[nH]c3ccccc13)C=C(c1ccccc1)O2 (stereo not given) | 14 mm |
| O=c1[nH]cnc2c1C(c1c(-c3ccccc3)[nH]c3ccccc13)C=C(c1ccccc1)O2 (stereo not given) | 5 mm |

Tested on: Klebsiella pneumoniae
Assay: Antimicrobial activity against Klebsiella pneumoniae NCTC 13368 at 1000 ug/ml after 24 hrs by cup plate method
Type: functional
Details: NCTC 13368, 24 h, read-out: IZ

| SMILES | zone of inhibition at 1000 µg/mL |
| --- | --- |
| Nc1nc(=S)[nH]c2c1C(c1c(-c3ccccc3)[nH]c3ccccc13)C=C(c1ccccc1)O2 (stereo not given) | 8 mm |
| O=c1[nH]cnc2c1C(c1c(-c3ccccc3)[nH]c3ccccc13)C=C(c1ccccc1)O2 (stereo not given) | 10 mm |

Tested on: Staphylococcus aureus
Assay: Antimicrobial activity against Staphylococcus aureus ATCC 29513 at 500 ug/ml after 24 hrs by cup plate method
Type: functional
Details: ATCC 29513, 24 h, read-out: IZ

| SMILES | zone of inhibition at 500 µg/mL |
| --- | --- |
| Nc1nc(=S)[nH]c2c1C(c1c(-c3ccccc3)[nH]c3ccccc13)C=C(c1ccccc1)O2 (stereo not given) | 2 mm |
| O=c1[nH]cnc2c1C(c1c(-c3ccccc3)[nH]c3ccccc13)C=C(c1ccccc1)O2 (stereo not given) | 10 mm |

Tested on: Escherichia coli
Assay: Antimicrobial activity against Escherichia coli MTCC 723 at 1000 ug/ml after 24 hrs by cup plate method
Type: functional
Details: MTCC 723, 24 h, read-out: IZ

| SMILES | zone of inhibition at 1000 µg/mL |
| --- | --- |
| Nc1nc(=S)[nH]c2c1C(c1c(-c3ccccc3)[nH]c3ccccc13)C=C(c1ccccc1)O2 (stereo not given) | 11 mm |
| O=c1[nH]cnc2c1C(c1c(-c3ccccc3)[nH]c3ccccc13)C=C(c1ccccc1)O2 (stereo not given) | 6 mm |

Tested on: Klebsiella pneumoniae
Assay: Antimicrobial activity against Klebsiella pneumoniae NCTC 13368 at 750 ug/ml after 24 hrs by cup plate method
Type: functional
Details: NCTC 13368, 24 h, read-out: IZ

| SMILES | zone of inhibition at 750 µg/mL |
| --- | --- |
| Nc1nc(=S)[nH]c2c1C(c1c(-c3ccccc3)[nH]c3ccccc13)C=C(c1ccccc1)O2 (stereo not given) | 8 mm |
| O=c1[nH]cnc2c1C(c1c(-c3ccccc3)[nH]c3ccccc13)C=C(c1ccccc1)O2 (stereo not given) | 10 mm |

Tested on: Aspergillus oryzae
Assay: Antimicrobial activity against Aspergillus oryzae MTCC 3567 at 500 ug/ml after 72 hrs by cup plate method
Type: functional
Details: MTCC 3567, 72 h, read-out: IZ

| SMILES | zone of inhibition at 500 µg/mL |
| --- | --- |
| Nc1nc(=S)[nH]c2c1C(c1c(-c3ccccc3)[nH]c3ccccc13)C=C(c1ccccc1)O2 (stereo not given) | 9 mm |
| O=c1[nH]cnc2c1C(c1c(-c3ccccc3)[nH]c3ccccc13)C=C(c1ccccc1)O2 (stereo not given) | 5 mm |

Tested on: Aspergillus flavus
Assay: Antimicrobial activity against Aspergillus flavus MTCC 1973 at 750 ug/ml after 72 hrs by cup plate method
Type: functional
Details: MTCC 1973, 72 h, read-out: IZ

| SMILES | zone of inhibition at 750 µg/mL |
| --- | --- |
| Nc1nc(=S)[nH]c2c1C(c1c(-c3ccccc3)[nH]c3ccccc13)C=C(c1ccccc1)O2 (stereo not given) | 9 mm |
| O=c1[nH]cnc2c1C(c1c(-c3ccccc3)[nH]c3ccccc13)C=C(c1ccccc1)O2 (stereo not given) | 9 mm |

Tested on: Aspergillus flavus
Assay: Antimicrobial activity against Aspergillus flavus MTCC 1973 at 1000 ug/ml after 72 hrs by cup plate method
Type: functional
Details: MTCC 1973, 72 h, read-out: IZ

| SMILES | zone of inhibition at 1000 µg/mL |
| --- | --- |
| Nc1nc(=S)[nH]c2c1C(c1c(-c3ccccc3)[nH]c3ccccc13)C=C(c1ccccc1)O2 (stereo not given) | 9 mm |
| O=c1[nH]cnc2c1C(c1c(-c3ccccc3)[nH]c3ccccc13)C=C(c1ccccc1)O2 (stereo not given) | 9 mm |

Tested on: Staphylococcus aureus
Assay: Antimicrobial activity against Staphylococcus aureus ATCC 29513 at 750 ug/ml after 24 hrs by cup plate method
Type: functional
Details: ATCC 29513, 24 h, read-out: IZ

| SMILES | zone of inhibition at 750 µg/mL |
| --- | --- |
| Nc1nc(=S)[nH]c2c1C(c1c(-c3ccccc3)[nH]c3ccccc13)C=C(c1ccccc1)O2 (stereo not given) | 2 mm |
| O=c1[nH]cnc2c1C(c1c(-c3ccccc3)[nH]c3ccccc13)C=C(c1ccccc1)O2 (stereo not given) | 10 mm |

Tested on: Pseudomonas aeruginosa
Assay: Antimicrobial activity against Pseudomonas aeruginosa MTCC 1688 at 500 ug/ml after 24 hrs by cup plate method
Type: functional
Details: MTCC 1688, 24 h, read-out: IZ

| SMILES | zone of inhibition at 500 µg/mL |
| --- | --- |
| Nc1nc(=S)[nH]c2c1C(c1c(-c3ccccc3)[nH]c3ccccc13)C=C(c1ccccc1)O2 (stereo not given) | 2 mm |
| O=c1[nH]cnc2c1C(c1c(-c3ccccc3)[nH]c3ccccc13)C=C(c1ccccc1)O2 (stereo not given) | 5 mm |

Tested on: Escherichia coli
Assay: Antimicrobial activity against Escherichia coli MTCC 723 at 500 ug/ml after 24 hrs by cup plate method
Type: functional
Details: MTCC 723, 24 h, read-out: IZ

| SMILES | zone of inhibition at 500 µg/mL |
| --- | --- |
| Nc1nc(=S)[nH]c2c1C(c1c(-c3ccccc3)[nH]c3ccccc13)C=C(c1ccccc1)O2 (stereo not given) | 10 mm |
| O=c1[nH]cnc2c1C(c1c(-c3ccccc3)[nH]c3ccccc13)C=C(c1ccccc1)O2 (stereo not given) | 8 mm |

Tested on: not listed separately
Assay: Antioxidant activity assessed as metal chelating activity by measuring inhibition of ferrozine-Fe2+ complex formation at 25 to 100 ug/ml
Type: functional
Details: not given

| SMILES | Activity |
| --- | --- |
| Nc1nc(=S)[nH]c2c1C(c1c(-c3ccccc3)[nH]c3ccccc13)C=C(c1ccccc1)O2 (stereo not given) | Active |
| O=c1[nH]cnc2c1C(c1c(-c3ccccc3)[nH]c3ccccc13)C=C(c1ccccc1)O2 (stereo not given) | Active |

Tested on: Aspergillus oryzae
Assay: Antimicrobial activity against Aspergillus oryzae MTCC 3567 at 1000 ug/ml after 72 hrs by cup plate method
Type: functional
Details: MTCC 3567, 72 h, read-out: IZ

| SMILES | zone of inhibition at 1000 µg/mL |
| --- | --- |
| Nc1nc(=S)[nH]c2c1C(c1c(-c3ccccc3)[nH]c3ccccc13)C=C(c1ccccc1)O2 (stereo not given) | 8 mm |
| O=c1[nH]cnc2c1C(c1c(-c3ccccc3)[nH]c3ccccc13)C=C(c1ccccc1)O2 (stereo not given) | 5 mm |

Tested on: Pseudomonas aeruginosa
Assay: Antimicrobial activity against Pseudomonas aeruginosa MTCC 1688 at 1000 ug/ml after 24 hrs by cup plate method
Type: functional
Details: MTCC 1688, 24 h, read-out: IZ

| SMILES | zone of inhibition at 1000 µg/mL |
| --- | --- |
| Nc1nc(=S)[nH]c2c1C(c1c(-c3ccccc3)[nH]c3ccccc13)C=C(c1ccccc1)O2 (stereo not given) | 2 mm |
| O=c1[nH]cnc2c1C(c1c(-c3ccccc3)[nH]c3ccccc13)C=C(c1ccccc1)O2 (stereo not given) | 4 mm |

Tested on: Aspergillus oryzae
Assay: Antimicrobial activity against Aspergillus oryzae MTCC 3567 at 750 ug/ml after 72 hrs by cup plate method
Type: functional
Details: MTCC 3567, 72 h, read-out: IZ

| SMILES | zone of inhibition at 750 µg/mL |
| --- | --- |
| Nc1nc(=S)[nH]c2c1C(c1c(-c3ccccc3)[nH]c3ccccc13)C=C(c1ccccc1)O2 (stereo not given) | 8 mm |
| O=c1[nH]cnc2c1C(c1c(-c3ccccc3)[nH]c3ccccc13)C=C(c1ccccc1)O2 (stereo not given) | 5 mm |

Tested on: Escherichia coli
Assay: Antimicrobial activity against Escherichia coli MTCC 723 at 750 ug/ml after 24 hrs by cup plate method
Type: functional
Details: MTCC 723, 24 h, read-out: IZ

| SMILES | zone of inhibition at 750 µg/mL |
| --- | --- |
| Nc1nc(=S)[nH]c2c1C(c1c(-c3ccccc3)[nH]c3ccccc13)C=C(c1ccccc1)O2 (stereo not given) | 10 mm |
| O=c1[nH]cnc2c1C(c1c(-c3ccccc3)[nH]c3ccccc13)C=C(c1ccccc1)O2 (stereo not given) | 6 mm |

Tested on: Aspergillus niger
Assay: Antimicrobial activity against Aspergillus niger MTCC 281 at 500 ug/ml after 72 hrs by cup plate method
Type: functional
Details: MTCC 281, 72 h, read-out: IZ

| SMILES | zone of inhibition at 500 µg/mL |
| --- | --- |
| Nc1nc(=S)[nH]c2c1C(c1c(-c3ccccc3)[nH]c3ccccc13)C=C(c1ccccc1)O2 (stereo not given) | 12 mm |
| O=c1[nH]cnc2c1C(c1c(-c3ccccc3)[nH]c3ccccc13)C=C(c1ccccc1)O2 (stereo not given) | 6 mm |

Tested on: Aspergillus niger
Assay: Antimicrobial activity against Aspergillus niger MTCC 281 at 750 ug/ml after 72 hrs by cup plate method
Type: functional
Details: MTCC 281, 72 h, read-out: IZ

| SMILES | zone of inhibition at 750 µg/mL |
| --- | --- |
| Nc1nc(=S)[nH]c2c1C(c1c(-c3ccccc3)[nH]c3ccccc13)C=C(c1ccccc1)O2 (stereo not given) | 12 mm |
| O=c1[nH]cnc2c1C(c1c(-c3ccccc3)[nH]c3ccccc13)C=C(c1ccccc1)O2 (stereo not given) | 6 mm |

Tested on: Aspergillus terreus
Assay: Antimicrobial activity against Aspergillus terreus MTCC 1782 at 1000 ug/ml after 72 hrs by cup plate method
Type: functional
Details: MTCC 1782, 72 h, read-out: IZ

| SMILES | zone of inhibition at 1000 µg/mL |
| --- | --- |
| Nc1nc(=S)[nH]c2c1C(c1c(-c3ccccc3)[nH]c3ccccc13)C=C(c1ccccc1)O2 (stereo not given) | 5 mm |
| O=c1[nH]cnc2c1C(c1c(-c3ccccc3)[nH]c3ccccc13)C=C(c1ccccc1)O2 (stereo not given) | 8 mm |
